{"source": "patent EP1121937A1", "about": "“VACCINE PR[…]” (THE KITASATO INSTITUTE, priority 1998, dated 2000)", "key": {"[1]": {"settings": "background art; cited from earlier work"}, "cellular immunity": {"system": "cellular immunity", "settings": "background art; cited from earlier work"}, "[2]": {"system": "influenza HA vaccine (A/PR/8/34 strain)", "design": "species or system BALB/c mice", "settings": "mouse, in vivo"}, "[3]": {"system": "pertussis-diphtheria-tetanus combined vaccine", "design": "species or system BALB/c mice", "settings": "mouse, in vivo"}, "[4]": {"system": "pertussis-diphtheria-tetanus combined vaccine", "design": "species or system BALB/c mice", "settings": "mouse, in vivo", "remark": "listed apart in the source"}, "sheep erythrocytes": {"system": "sheep erythrocytes", "assay": "Hemolytic test for active saponins (Example 6)", "format": "cell-based", "settings": "30 minutes at room temperature, solutions 3.125 to 200 µg/ml in PBS, E and F judged at a final concentration of 200 µg/ml", "procedure": "It has been known that saponins generally have the hemolytic activity. Thus, the inventive active saponins were tested for the hemolytic activity as follows. The sheep erythrocytes were washed 3 times with phosphate buffered saline (PBS), and then diluted 2.5 times with the same buffer for the subsequent experiment. Aliquots (100 µl ) of solutions of onjisaponins A, E, F, and G (200, 100, 50, 25, 6.25, 3.125 µg/ml-PBS solution) were added to V-shaped wells of a 96-well micro-plate, and 25 µl of sheep erythrocyte suspension was added to each well. The plate was allowed to stand still at room temperature for 30 minutes. Then, the samples were centrifuged at 1000 rpm for 5 minutes. An aliquot (50 µl) of the resulting supernatant was transferred to a flat-bottomed well of a plate and the absorbance thereof was measured at 490 nm in a micro-plate reader (Model 450, BioRad Co.). The hemolytic activity of test compound was evaluated based on the increase in absorbance at 490 nm, which results from the release of hemoglobin from sheep erythrocytes."}, "[5]": {"system": "influenza HA vaccine (A/Beijing/262/95 strain)", "design": "species or system BALB/c mice", "settings": "mouse, in vivo"}, "[6]": {"system": "influenza HA vaccine (A/Beijing/262/95 strain)", "format": "in vivo, BALB/c mice"}}, "note": "“Also recorded” adds a separate entry of the source."}
{"substance": "QS-21", "values": [{"measurement": "solubility", "setting": "[1]", "value": "too low"}, {"measurement": "induction of cellular immunity", "setting": "cellular immunity", "value": "strongly induces the cellular immunity"}]}
{"substance": "onjisaponin A", "values": [{"measurement": "anti-HA-IgA and IgG antibody titers in the nasal irrigation liquid compared with the group given vaccine in combination with CTB", "setting": "[2]", "value": "comparable"}, {"measurement": "anti-HA-IgA antibody titer in the nasal irrigation liquid", "setting": "[2]", "value": "increased to the highest level"}, {"measurement": "anti-HA-IgG antibody titer in the nasal irrigation liquid", "setting": "[2]", "value": "increased to the highest level"}, {"measurement": "titer of anti-DT-IgG antibody in the serum", "setting": "[3]", "value": "increased to highest levels"}, {"measurement": "titer of anti-PT-IgG antibody in the serum", "setting": "[3]", "value": "increased to highest levels"}, {"measurement": "titer of anti-TT-IgG antibody in the serum", "setting": "[3]", "value": "increased to highest levels"}, {"measurement": "titers of anti-PT-IgG, anti-DT-IgG and anti-TT-IgG antibodies in the serum compared with the group given vaccine and CTB", "setting": "[3]", "value": "comparable"}, {"measurement": "titer of anti-DT-IgA antibody in the nasal irrigation liquid", "setting": "[4]", "value": "increased to highest levels"}, {"measurement": "titer of anti-PT-IgA antibody in the nasal irrigation liquid", "setting": "[4]", "value": "increased to highest levels"}, {"measurement": "titer of anti-TT-IgA antibody in the nasal irrigation liquid", "setting": "[4]", "value": "increased to highest levels"}, {"measurement": "titers of anti-PT-IgA, anti-DT-IgA and anti-TT-IgA antibodies in the nasal irrigation liquid compared with the group given vaccine and CTB", "setting": "[4]", "value": "comparable"}, {"measurement": "hemolytic activity (release of hemoglobin, absorbance at 490 nm)", "setting": "sheep erythrocytes", "value": "not acceptable; also recorded: hemolysis clearly occurred"}]}
{"substance": "onjisaponin E", "values": [{"measurement": "anti-HA-IgA antibody titer in the nasal irrigation liquid", "setting": "[2]", "value": "increased only the production of anti-HA-IgA to a statistically significant level"}, {"measurement": "anti-HA-IgG antibody titer in the nasal irrigation liquid", "setting": "[2]", "value": "increased only the production of anti-HA-IgA"}, {"measurement": "hemolytic activity (release of hemoglobin, absorbance at 490 nm)", "setting": "sheep erythrocytes", "value": "substantially no hemolytic activity; also recorded: low hemolytic activity; also recorded: hardly recognized"}]}
{"substance": "onjisaponin F", "values": [{"measurement": "anti-HA-IgA antibody titer in the nasal irrigation liquid", "setting": "[2]", "value": "increased the production"}, {"measurement": "anti-HA-IgG antibody titer in the nasal irrigation liquid", "setting": "[2]", "value": "increased the production"}, {"measurement": "titer of anti-DT-IgG antibody in the serum", "setting": "[3]", "value": "also elevated"}, {"measurement": "titer of anti-PT-IgG antibody in the serum", "setting": "[3]", "value": "also elevated"}, {"measurement": "titer of anti-TT-IgG antibody in the serum", "setting": "[3]", "value": "also elevated"}, {"measurement": "titer of anti-DT-IgA antibody in the nasal irrigation liquid", "setting": "[4]", "value": "increased to highest levels"}, {"measurement": "titer of anti-PT-IgA antibody in the nasal irrigation liquid", "setting": "[4]", "value": "increased to highest levels"}, {"measurement": "titer of anti-TT-IgA antibody in the nasal irrigation liquid", "setting": "[4]", "value": "increased to highest levels"}, {"measurement": "titers of anti-PT-IgA, anti-DT-IgA and anti-TT-IgA antibodies in the nasal irrigation liquid compared with the group given vaccine and CTB", "setting": "[4]", "value": "comparable"}, {"measurement": "hemolytic activity (release of hemoglobin, absorbance at 490 nm)", "setting": "sheep erythrocytes", "value": "substantially no hemolytic activity; also recorded: low hemolytic activity; also recorded: hardly recognized"}, {"measurement": "HI antibody titer in the serum compared with HA vaccine alone", "setting": "[5]", "value": "significantly increased"}, {"measurement": "adjuvant activity (serum HI antibody titer) compared with the same amount of CTB", "setting": "[5]", "value": "slightly weaker"}, {"measurement": "adjuvant activity of enhancing the titer of anti-HA-IgA antibody compared with the same amount of CTB", "setting": "[6]; mouse, in vivo", "value": "lower"}, {"measurement": "anti-HA-IgA antibody titer in the nasal irrigation liquid", "setting": "[6]; secondary response, […]", "value": "significantly increased"}, {"measurement": "anti-HA-IgG antibody titer in the nasal irrigation liquid", "setting": "[6]; secondary response, […]", "value": "significantly increased"}]}
{"substance": "onjisaponin G", "values": [{"measurement": "anti-HA-IgA antibody titer in the nasal irrigation liquid", "setting": "[2]", "value": "increased only the production of anti-HA-IgA to a statistically significant level"}, {"measurement": "anti-HA-IgG antibody titer in the nasal irrigation liquid", "setting": "[2]", "value": "increased only the production of anti-HA-IgA"}, {"measurement": "titer of anti-DT-IgG antibody in the serum", "setting": "[3]", "value": "increased only anti-TT-IgG antibody titer"}, {"measurement": "titer of anti-PT-IgG antibody in the serum", "setting": "[3]", "value": "increased only anti-TT-IgG antibody titer"}, {"measurement": "titer of anti-TT-IgG antibody in the serum", "setting": "[3]", "value": "increased only anti-TT-IgG antibody titer to a statistically significant level"}, {"measurement": "titer of anti-DT-IgA antibody in the nasal irrigation liquid", "setting": "[4]", "value": "also elevated"}, {"measurement": "titer of anti-TT-IgA antibody in the nasal irrigation liquid", "setting": "[4]", "value": "also elevated"}, {"measurement": "hemolytic activity (release of hemoglobin, absorbance at 490 nm)", "setting": "sheep erythrocytes", "value": "low hemolytic activity; also recorded: moderate degree of hemolysis"}]}
